The results in this text go back to PMC12209990, “Effect of Cytochrome P450 3A Inhibition and Induction by Itraconazole and Rifampin on Tazemetostat Pharmacokinetics in Patients With Advanced Malignancies” (Clinical Pharmacology in Drug Development, 2025).

A short description of data set [1]: Safety (TEAEs) Part 1: tazemetostat coadministered with itraconazole. The settings on record: human, in vivo. How it is done:
Part 1 of the study evaluated the DDI between tazemetostat and itraconazole. On the mornings of Days 1 and 15, patients received a single dose of tazemetostat 400 mg orally. On Days 3‐14, patients received tazemetostat 400 mg twice daily (morning and evening). On Days 18‐20, patients received itraconazole 200 mg orally once daily in the morning. On Days 21‐35, tazemetostat 400 mg twice daily was coadministered in the morning with a single dose of itraconazole 200 mg. On Day 36, patients received a single dose of tazemetostat 400 mg coadministered in the morning with a single dose of itraconazole 200 mg. On Days 37 and 38, patients received a single dose of itraconazole 200 mg (Figure 1A). Throughout Part 1, administration of itraconazole occurred 1 hour after a meal.
(§1) Safety was assessed by monitoring treatment‐emergent adverse events (TEAEs) and vital signs, electrocardiography, and clinical laboratory tests. TEAEs were defined as adverse events that started or worsened in severity on or after the date of the first dose of the study drug through 30 days after the last dose. Treatment‐related TEAEs were summarized by each study drug for both study parts. Adverse events were coded using the Medical Dictionary for Regulatory Activities Version 23.1 and graded per Common Terminology Criteria for Adverse Events Version 5.0.

Data set [2] can be described thus: Safety (TEAEs) Part 2: tazemetostat coadministered with rifampin. The settings on record: human, in vivo. On the procedure: Part 2 of the study evaluated the DDI between tazemetostat and rifampin. On the mornings of Days 1 and 15, patients received a single dose of tazemetostat 800 mg orally. On Days 3‐14, patients received tazemetostat 800 mg twice daily. On Days 17‐23, patients received tazemetostat 800 mg twice daily, coadministered in the morning with a single dose of rifampin 600 mg orally. On the morning of Day 24, patients received a single dose of tazemetostat 800 mg coadministered with rifampin 600 mg. On the morning of Day 25, patients received rifampin 600 mg (Figure 1B). Throughout Part 2, administration of rifampin occurred 1 hour before a meal.
as §1

For the molecule `CCC(C)n1ncn(-c2ccc(N3CCN(c4ccc(OCC5COC(Cn6cncn6)(c6ccc(Cl)cc6Cl)O5)cc4)CC3)cc2)c1=O` (stereo not drawn) [Itraconazole], in data set [1], the “Treatment-related TEAE Grade 3 or 4, related to the named study drug, patients” value is given as 1 (4.8) n (%); the “Treatment-related TEAEs, related to the named study drug, patients” value is reported as 8 (38.1) n (%); the “Treatment-related TESAE, related to the named study drug, patients” value was 0 n (%).

For `CO[C@H]1/C=C/O[C@@]2(C)Oc3c(C)c(O)c4c(O)c(c(/C=N/N5CCN(C)CC5)c(O)c4c3C2=O)NC(=O)/C(C)=C\C=C\[C@H](C)[C@H](O)[C@@H](C)[C@@H](O)[C@@H](C)[C@H](OC(C)=O)[C@@H]1C` [Rifampin], in data set [2], the “Treatment-related TEAE Grade 3 or 4, related to the named study drug, patients” value is listed as 1 (4.8) n (%); the “Treatment-related TEAEs, related to the named study drug, patients” value is on record as 8 (38.1) n (%); the “Treatment-related TESAE, related to the named study drug, patients” value is recorded as 0 n (%).
